Two compounds from patent US20080070885 can be followed below.

Where two headings read alike, the source gives them in different places.

With `C[C@@H]1CS(=O)(=O)CCC=CCc2cccc(c2)C[C@@H]([C@@H]2C[C@@H](C)C(=O)O2)NC1=O`, the ring closure, yield of all isomers (from C=CCCS(=O)(=O)C[C@@H](C)C(=O)N[C@@H](Cc1cccc(CC=C)c1)[C@@H]1C[C@@H](C)C(=O)O1, rcm bond, benzylidene(1,3-dimesitylimidazolidin-2-ylidene)(tricyclohexylphosphine)ruthenium dichloride (Grubbs II), dichloromethane, 60.0 °C, 2.5 h) is 74.7%.

`CCCCNC(=O)[C@H](C)C[C@H](O)[C@@H]1Cc2cccc(c2)OCCCCC(=O)N[C@@H](C)C(=O)N1` (relative stereo): the ring closure, yield of all isomers (from CCCCNC(=O)[C@H](C)C[C@H](O)[C@H](Cc1cccc(OCCCCC(=O)O)c1)NC(=O)[C@H](C)N, amide bond, BOP, diisopropylethylamine, DMF, 7.1 mM, 25.0 °C, 16.0 h) was 1.7%.
